# Legend:
# [1] = tested on: osteoclasts differentiated from human monocytes on bone matrix; assay: Bone resorption in vitro (Crosslaps assay, CTX release); assay type: cell-based; conditions: for inhibition at 0.2 µM: 200 nM in differentiating medium; for inhibition at 20 µM: Monocyte, monocytes pre-incubated (6 hours, 20 μM) before differentiation
# Method: PBMC from adult healthy volunteers are prepared as described in example 1.
# Monocytes are then purified as described in section 4.2.
# Monocytes were cultured in bone matrix 96-well plates (OsteoAssay Human bone plate, Lonza, USA) and differentiated into osteoclasts in the presence of M-CSF and sRANK-Ligand as described in section 4.2. Supernatants were collected and bone resorption was evaluated using a Crosslaps assay (Nordicbioscience, Danemark) which measures collagen degradation fragments.
# human monocytes = assay: Quantitative RT-PCR of mRNA expression in dendrimer-activated monocytes; assay type: cell-based; conditions: 20 μM, 6 hours; da-monocytes vs untreated monocytes, 6 donors
# Method: For genechip analysis, 10×10^6 monocytes from 3 donors (and from 3 more donors for quantitative PCR) are cultured in 25 cm^2 dishes. They are stimulated with 20 μM of dendrimer for 6 hours or remain untreated (control cells).
# Total RNA are purified as described above, and 5 μg are used to synthesize single-strand cDNA using M-MLV reverse transcriptase RNase H Minus (Promega), according to the manufacturer's instructions. Quantitative RT-PCR is then performed using the Platinium SYBR Green qPCR SuperMix UDG (Invitrogen) with forward and reverse primers at a final concentration of 300 nM. The primers are designed using Primer Express software from mRNA sequences submitted to Ensembl data base, and are listed in FIG. 7. Quantification of the different mRNA is performed on a 7000 Sequence Detection System (Applied Biosystems). PCR amplification begins with 1 cycle of 50° C. for 2 minutes and 95° C. for 10 minutes, followed with 40 cycles of denaturation at 95° C. for 15 seconds and annealing/extension at 60° C. for 60 seconds. All experiments are performed in duplicate. For each donor, the relative expression is calculated as 2^−ΔΔCt where ΔΔCt is the difference between ΔCt of the sample and the ΔCt of the reference consisting of the control monocytes. ΔCt is the difference between the Ct of the target gene and the GAPDH gene. For statistical analysis, a one-tailed paired t test is performed comparing the ΔCt values for the da-monocytes and the corresponding control monocytes with Sigma Stat software (Systat Software).
# [2] = tested on: mice immunized against myelin oligodendrocyte protein peptide 35-55; assay: Experimental Autoimmune Encephalomyelitis (EAE) mouse model; assay type: in vivo; conditions: 45 days post-immunization, control about 4
# Excerpt: Experimental Autoimmune Encephalomyelitis (EAE) is an inflammatory disease of the Central Nervous System (CNS) that shares clinical and immunopathological similarities with Multiple Sclerosis (MS). The model we have chosen is the classical model of active EAE induced by an immunization against myelin oligodendrocyte protein (MΦG) peptide 35-55 in mice. This leads to a chronic-progressive form of EAE resembling MS. Therefore, it is considered as a good model. Disease severity is scored on a clinical scale of 0 to 5 (0 being no detectable sign of EAE, 4 being tetraparalysis and 5 moribund or death). After MΦG-immunization, EAE scores for motor functions have been evaluated daily for 45 days for each animal. A preventive protocol (FIG. 17A) and a therapeutic protocol (FIG. 17B) have been tested. In both cases, mice are immunized with the MΦG peptide at Day 0 (first arrow of FIGS. 17A and 17B, corresponding to day 0 post-immunization). In the preventive protocol, intravenous administration of 10 mg/kg of dendrimer ABP started at Day 1 (FIG. 17A, second arrow, corresponding to 1 day post-immunization) and then every three days. In the therapeutic protocol, administration of ABP started once the disease is established at Day 18 (FIG. 17B, second arrow, corresponding to 18 days post-immunization), in the same conditions as the preventive protocol.
# CD4+ T cells = assay: Intracellular detection of IL10 in CD4+ T cells after MLR; assay type: cell-based, human; conditions: PBL:monocytes 4:1, 5 hours re-stimulation; compared to MLR with class-monocytes
# Method: Six days following the primary stimulation with one of the differently activated monocytes at a ratio of PBL:monocytes of 4:1, cells were restimulated with 10000 anti-CD 3/anti-CD28 beads for 5 hours (according to the technical description by J. P. Edwards et al., (2006) J Leukoc Biol 80, 1298-1307) and with 10 μg/mL Brefeldin A (Sigma-Aldrich) to inhibit cytokine secretion. Cells are then harvested, washed with PBS and incubated 15 minutes at 4° C. with mouse mAb anti-human CD4-PE (clone 13B8.2, Beckman-Coulter) in PBS with 5% FCS. Cells washed twice, are then fixed by 2% paraformaldehyde in PBS and permeabilized with 1% saponin in PBS. Intracellular staining is performed with AlloPhycoCyanin-conjugated rat anti-human IL10 (clone JES3-19F1, BD Bioscience) for 30 minutes at 4° C. in PBS with 1% saponin and analyzed by flow cytometry. Each condition is done in triplicate and results are expressed as the mean±SD. Intracellular IL10 mean fluorescence intensity (mfi) means across the differently activated monocytes are compared by one-way analysis of variance, the comparisons between CD4^+/CFSE^− and CD4^+/CFSE^+ cells are done with Student's t-test using Sigma Stat software (Systat Software).
structure (smiles),measurement,setting,value
CN(/N=C/c1ccc(OP2(Oc3ccc(/C=N/N(C)P(=S)(Oc4ccc(CCN(CP(=O)(O)O)CP(=O)(O)O)cc4)Oc4ccc(CCN(CP(=O)(O)O)CP(=O)(O)O)cc4)cc3)=NP(Oc3ccc(/C=N/N(C)P(=S)(Oc4ccc(CCN(CP(=O)(O)O)CP(=O)(O)O)cc4)Oc4ccc(CCN(CP(=O)(O)O)CP(=O)(O)O)cc4)cc3)(Oc3ccc(/C=N/N(C)P(=S)(Oc4ccc(CCN(CP(=O)(O)O)CP(=O)(O)O)cc4)Oc4ccc(CCN(CP(=O)(O)O)CP(=O)(O)O)cc4)cc3)=NP(Oc3ccc(/C=N/N(C)P(=S)(Oc4ccc(CCN(CP(=O)(O)O)CP(=O)(O)O)cc4)Oc4ccc(CCN(CP(=O)(O)O)CP(=O)(O)O)cc4)cc3)(c3ccc(/C=N/N(C)P(=S)(Oc4ccc(CCN(CP(=O)(O)O)CP(=O)(O)O)cc4)Oc4ccc(CCN(CP(=O)(O)O)CP(=O)(O)O)cc4)cc3)=N2)cc1)P(=S)(Oc1ccc(CCN(CP(=O)(O)O)CP(=O)(O)O)cc1)Oc1ccc(CCN(CP(=O)(O)O)CP(=O)(O)O)cc1 (stereo not shown) [Gc1],inhibition at 0.2 µM,"[1]; 288 h, day 12",~60%
same,inhibition at 0.2 µM,"[1]; 360 h, day 15",~80%
same,inhibition at 20 µM,[1]; day 12,~80%
same,inhibition at 20 µM,[1]; day 15,~50%
same,mRNA expression of CCL5,human monocytes,significantly under-expressed
same,"mRNA expression of alternative activation genes MRC1, IL1 RN, IL10, CCL18 and CD23",human monocytes,significantly up-regulated
same,"mRNA expression of classical activation genes IL1β, IL6 and IL12",human monocytes,not significantly modified
same,"disease severity clinical score (EAE, scale 0 to 5)","[2]; preventive protocol: 10 mg/kg intravenous from Day 1, every three days",less than 1
same,"disease severity clinical score (EAE, scale 0 to 5)","[2]; therapeutic protocol: 10 mg/kg intravenous from Day 18, every three days",about 1
same,production of IL10 by divided CD4+ T cells in MLR with da-monocytes,CD4+ T cells,significantly enhanced

# — US10106565B2 (priority 2008, dated 2018)
